In the supplement of paper PMC6045584:
± gives the standard deviation of the averaged measurements.

Tests used:
VISMODEGIB = compound: CS(=O)(=O)c1ccc(C(=O)Nc2ccc(Cl)c(-c3ccccn3)c2)c(Cl)c1 [VISMODEGIB]; assay: surviving fraction relative to DMSO-only wells; higher = less growth inhibition; details: exposure time: 5 days
How it was run: (§1)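 Viability was determined by CellTiter-Glo luminescence, expressed as surviving fraction normalised to the median of DMSO-only wells. The cells were log-phase tumour cell lines seeded at 250–500 per well in 384-well plates and, after 24 hours, exposed continuously for five days to inhibitors at 0.5, 1, 5, 10, 50, 100, 500 and 1000 nM. Three screens per line were run, keeping only lines with replicate Pearson r >0.7 and median Z' >0.3.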

DECITABINE = compound: Nc1ncn([C@H]2C[C@H](O)[C@@H](CO)O2)c(=O)n1 [DECITABINE]; assay: as above; details: exposure time: 5 days
How it was run: as §1

| Test System | surviving fraction (VISMODEGIB; 0.5 nM) | surviving fraction (VISMODEGIB; 1 nM) | surviving fraction (VISMODEGIB; 5 nM) | surviving fraction (VISMODEGIB; 10 nM) | surviving fraction (VISMODEGIB; 50 nM) | surviving fraction (VISMODEGIB; 100 nM) | surviving fraction (VISMODEGIB; 500 nM) | surviving fraction (VISMODEGIB; 1000 nM) | surviving fraction (DECITABINE; 0.5 nM) | surviving fraction (DECITABINE; 1 nM) | surviving fraction (DECITABINE; 5 nM) | surviving fraction (DECITABINE; 10 nM) | surviving fraction (DECITABINE; 50 nM) | surviving fraction (DECITABINE; 100 nM) | surviving fraction (DECITABINE; 500 nM) | surviving fraction (DECITABINE; 1000 nM) |
| --- | --- | --- | --- | --- | --- | --- | --- | --- | --- | --- | --- | --- | --- | --- | --- | --- |
| JURKAT HAEMATOPOIETIC AND LYMPHOID TISSUE | 1.09 ± 0.0025 | 1.09 ± 0.017 | 1.06 ± 0.017 | 1.1 ± 0.019 | 0.99 ± 0.016 | 1.04 ± 0.026 | 1.02 ± 0.032 | 1.05 ± 0.017 | 1 ± 0.04 | 1.06 ± 0.025 | 0.823 ± 0.022 | 0.746 ± 0.034 | 0.121 ± 0.0055 | 0.072 ± 0.003 | 0.0327 ± 0.00058 | 0.028 ± 0.001 |
| KPD BONE | 0.899 ± 0.045 | 0.946 ± 0.088 | 1.05 ± 0.078 | 1.01 ± 0.017 | 0.956 ± 0.012 | 1.05 ± 0.073 | 0.98 ± 0.039 | 0.933 ± 0.07 | 0.916 ± 0.057 | 0.919 ± 0.053 | 0.801 ± 0.022 | 0.692 ± 0.056 | 0.534 ± 0.023 | 0.464 ± 0.012 | 0.379 ± 0.026 | 0.353 ± 0.044 |
| LM7 BONE | 0.92 ± 0.055 | 0.955 ± 0.02 | 1.56 ± 1 | 1.03 ± 0.037 | 0.865 ± 0.01 | 0.909 ± 0.067 | 0.849 ± 0.067 | 0.86 ± 0.085 | 0.939 ± 0.025 | 1 ± 0.035 | 1.05 ± 0.05 | 0.983 ± 0.061 | 0.939 ± 0.027 | 0.91 ± 0.042 | 0.749 ± 0.044 | 0.742 ± 0.048 |
| LNCAP PROSTATE | 1.01 ± 0.17 | 0.95 ± 0.15 | 1.01 ± 0.13 | 1.02 ± 0.21 | 1.14 ± 0.11 | 1.08 ± 0.19 | 1.13 ± 0.13 | 1.08 ± 0.12 | 0.917 ± 0.037 | 1.02 ± 0.11 | 0.954 ± 0.083 | 1.01 ± 0.11 | 0.785 ± 0.02 | 0.695 ± 0.1 | 0.634 ± 0.044 | 0.522 ± 0.0079 |
| MCF7 BREAST | 0.898 ± 0.029 | 0.916 ± 0.059 | 0.874 ± 0.032 | 0.892 ± 0.097 | 0.883 ± 0.032 | 0.966 ± 0.043 | 0.913 ± 0.041 | 0.904 ± 0.037 | 0.932 ± 0.022 | 0.906 ± 0.065 | 0.887 ± 0.02 | 0.803 ± 0.02 | 0.843 ± 0.04 | 0.861 ± 0.026 | 0.842 ± 0.034 | 0.83 ± 0.043 |
| MDAMB134 BREAST | 0.848 ± 0.089 | 0.886 ± 0.14 | 0.878 ± 0.057 | 0.915 ± 0.062 | 0.687 ± 0.12 | 0.717 ± 0.093 | 0.625 ± 0.024 | 0.662 ± 0.11 | 0.979 ± 0.082 | 1.06 ± 0.26 | 1.04 ± 0.1 | 1.02 ± 0.023 | 1.1 ± 0.12 | 1.25 ± 0.059 | 1.15 ± 0.042 | 1.22 ± 0.016 |
| MDAMB157 BREAST | 0.901 ± 0.11 | 0.943 ± 0.098 | 1.02 ± 0.04 | 0.966 ± 0.06 | 1.02 ± 0.11 | 1.13 ± 0.12 | 1.01 ± 0.049 | 0.977 ± 0.061 | 0.998 ± 0.013 | 0.907 ± 0.046 | 0.922 ± 0.13 | 0.897 ± 0.065 | 0.632 ± 0.042 | 0.547 ± 0.058 | 0.41 ± 0.075 | 0.382 ± 0.059 |
| MDAMB231 BREAST | 0.9193 ± 0.003 | 0.942 ± 0.018 | 0.95 ± 0.019 | 0.96 ± 0.02 | 0.884 ± 0.014 | 0.9527 ± 0.0036 | 0.85 ± 0.025 | 0.8868 ± 0.0044 | 1 ± 0.034 | 0.986 ± 0.024 | 1.01 ± 0.028 | 1 ± 0.022 | 1.01 ± 0.021 | 0.965 ± 0.013 | 0.865 ± 0.016 | 0.835 ± 0.039 |
| MDAMB361 BREAST | 0.83 ± 0.021 | 0.798 ± 0.039 | 0.829 ± 0.043 | 0.784 ± 0.051 | 0.571 ± 0.019 | 0.612 ± 0.093 | 0.583 ± 0.049 | 0.598 ± 0.032 | 0.895 ± 0.057 | 0.909 ± 0.034 | 0.938 ± 0.08 | 0.875 ± 0.038 | 0.906 ± 0.19 | 0.915 ± 0.17 | 0.99 ± 0.2 | 0.921 ± 0.084 |
| MDAMB436 BREAST | 0.851 ± 0.041 | 0.865 ± 0.0089 | 0.873 ± 0.027 | 0.852 ± 0.071 | 0.891 ± 0.04 | 0.915 ± 0.056 | 0.751 ± 0.013 | 0.78 ± 0.045 | 1.11 ± 0.084 | 1.06 ± 0.079 | 1 ± 0.12 | 0.949 ± 0.09 | 0.927 ± 0.11 | 0.823 ± 0.064 | 0.796 ± 0.048 | 0.685 ± 0.032 |
| MDAMB453 BREAST | 0.926 ± 0.025 | 0.966 ± 0.03 | 0.951 ± 0.021 | 1.03 ± 0.043 | 0.89 ± 0.047 | 0.954 ± 0.014 | 0.949 ± 0.027 | 0.9893 ± 0.0072 | 1.04 ± 0.053 | 1.04 ± 0.032 | 1.05 ± 0.093 | 1.07 ± 0.062 | 1.05 ± 0.061 | 1.02 ± 0.059 | 0.88 ± 0.015 | 0.757 ± 0.053 |
| MDAMB468 BREAST | 1.02 ± 0.064 | 0.927 ± 0.056 | 0.996 ± 0.058 | 0.957 ± 0.085 | 0.908 ± 0.083 | 1.02 ± 0.076 | 0.944 ± 0.065 | 0.955 ± 0.1 | 1.09 ± 0.083 | 1.08 ± 0.062 | 1.08 ± 0.098 | 1.03 ± 0.068 | 0.836 ± 0.04 | 0.658 ± 0.046 | 0.391 ± 0.02 | 0.341 ± 0.043 |
| MFM223 BREAST | 1.07 ± 0.11 | 1.1 ± 0.021 | 1.05 ± 0.058 | 1.14 ± 0.035 | 0.841 ± 0.08 | 0.875 ± 0.081 | 0.901 ± 0.068 | 0.853 ± 0.063 | 1.5 ± 0.59 | 1.51 ± 0.5 | 1.45 ± 0.48 | 1.47 ± 0.53 | 1.05 ± 0.061 | 1.05 ± 0.1 | 0.993 ± 0.095 | 0.799 ± 0.02 |
| MG63 BONE | 0.925 ± 0.035 | 0.9747 ± 0.0063 | 0.982 ± 0.023 | 0.993 ± 0.026 | 0.983 ± 0.003 | 1.01 ± 0.02 | 0.905 ± 0.007 | 0.966 ± 0.026 | 0.968 ± 0.02 | 0.9493 ± 0.0021 | 0.704 ± 0.009 | 0.641 ± 0.0093 | 0.432 ± 0.017 | 0.356 ± 0.008 | 0.302 ± 0.016 | 0.291 ± 0.011 |
| MHM BONE | 0.978 ± 0.04 | 1.018 ± 0.0098 | 1.04 ± 0.035 | 1.02 ± 0.027 | 1.04 ± 0.015 | 1.05 ± 0.017 | 1.04 ± 0.008 | 1.085 ± 0.0059 | 1 ± 0.029 | 1 ± 0.07 | 1.02 ± 0.04 | 1.02 ± 0.062 | 1.05 ± 0.044 | 1.02 ± 0.023 | 1.08 ± 0.042 | 1.04 ± 0.038 |
| NCIH441 LUNG | 0.971 ± 0.018 | 1.02 ± 0.11 | 1.01 ± 0.032 | 1.05 ± 0.036 | 0.971 ± 0.041 | 0.945 ± 0.041 | 0.9667 ± 0.0045 | 1.03 ± 0.086 | 1.11 ± 0.025 | 1.11 ± 0.058 | 1.03 ± 0.074 | 0.935 ± 0.039 | 0.71 ± 0.057 | 0.591 ± 0.12 | 0.494 ± 0.047 | 0.405 ± 0.056 |
| NOS1 BONE | 1.09 ± 0.11 | 1.13 ± 0.13 | 1.1 ± 0.076 | 1.2 ± 0.065 | 0.926 ± 0.088 | 0.958 ± 0.049 | 0.819 ± 0.022 | 0.832 ± 0.04 | 1.07 ± 0.099 | 0.872 ± 0.046 | 1.28 ± 0.055 | 0.989 ± 0.08 | 1.09 ± 0.043 | 0.992 ± 0.074 | 0.977 ± 0.22 | 0.816 ± 0.031 |
| NY BONE | 0.955 ± 0.018 | 0.968 ± 0.033 | 0.977 ± 0.018 | 1.06 ± 0.027 | 0.993 ± 0.025 | 0.996 ± 0.016 | 0.932 ± 0.058 | 1.01 ± 0.041 | 0.9793 ± 0.0075 | 0.955 ± 0.016 | 1 ± 0.028 | 0.939 ± 0.018 | 0.921 ± 0.021 | 0.843 ± 0.054 | 0.649 ± 0.036 | 0.479 ± 0.042 |
| OS25HAL BONE | 1 ± 0.014 | 1 ± 0.033 | 0.9983 ± 0.009 | 0.998 ± 0.017 | 0.967 ± 0.019 | 0.98 ± 0.005 | 1.01 ± 0.048 | 1.02 ± 0.054 | 1.01 ± 0.024 | 0.9963 ± 0.0074 | 1.08 ± 0.033 | 1.07 ± 0.011 | 1.19 ± 0.034 | 1.22 ± 0.034 | 1.047 ± 0.01 | 0.921 ± 0.055 |
| OSHN BONE | 1.01 ± 0.022 | 1.03 ± 0.019 | 1.05 ± 0.013 | 1.059 ± 0.0084 | 0.955 ± 0.021 | 0.991 ± 0.024 | 0.963 ± 0.031 | 0.989 ± 0.025 | 1.08 ± 0.015 | 1.06 ± 0.028 | 1.11 ± 0.024 | 1.07 ± 0.032 | 1.17 ± 0.03 | 1.17 ± 0.017 | 1.22 ± 0.022 | 1.112 ± 0.0035 |
